A short description of the data set: Solution state of spinosad in dip water. Type of data set: physicochemical. As to conditions: 5 and 50 ppm. As to the method: Two trials were conducted to determine the degree to which spinosad is removed (stripped) from dip water after dipping sheep. In the trials, spinosad dip tank concentrations of 50 ppm and 5 ppm were prepared from an aqueous suspension containing 25 g/L of spinosad. Both trials involved dipping 10 Dorset-cross shorn sheep in 70 gallons (265 liters) of treated water. Each animal was dipped for 30 seconds duration, with the head immersed twice. Samples of dip water were taken for HPLC analysis, initially and after each sheep was dipped. The pH of the water was also determined after each animal was dipped. A dip tank concentration of 5 ppm of spinosad should provide lice control on sheep.

For spinosad, the “Solution state in dip water (in words)” value was “in true solution at 5 and 50 ppm concentration”.
